Source: PubChem BioAssay (NCI)
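Dose response: 5 concentrations. Exposure: 48 h. Format: 96-well plates. Endpoint: linear interpolation; highest concentration if not reached. TGI denotes the concentration required for complete inhibition of growth.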

How the values were obtained:
Assay in all cases: NCI-60 cell line screen, 48 h
TK-10 renal = test system: TK-10 renal
MCF7 breast = test system: MCF7 breast
LOX IMVI melanoma = test system: LOX IMVI melanoma
HCC-2998 colon = test system: HCC-2998 colon
COLO 205 colon = test system: COLO 205 colon
M14 melanoma = test system: M14 melanoma
OVCAR-5 ovarian = test system: OVCAR-5 ovarian
PC-3 prostate = test system: PC-3 prostate
RPMI-8226 leukemia = test system: RPMI-8226 leukemia
SR leukemia = test system: SR leukemia
EKVX NSCLC = test system: EKVX NSCLC
A498 renal = test system: A498 renal
BT-549 breast = test system: BT-549 breast
SF-268 CNS = test system: SF-268 CNS
RXF 393 renal = test system: RXF 393 renal
NCI/ADR-RES ovarian = test system: NCI/ADR-RES ovarian
NCI-H226 lung = test system: NCI-H226 lung
UO-31 renal = test system: UO-31 renal
SW-620 colon = test system: SW-620 colon
DLD-1 colon = test system: DLD-1 colon
KM20L2 colon = test system: KM20L2 colon
DU-145 prostate = test system: DU-145 prostate
HOP-18 NSCLC = test system: HOP-18 NSCLC
MDA-N = test system: MDA-N
T-47D breast = test system: T-47D breast
KM12 colon = test system: KM12 colon
K-562 leukemia = test system: K-562 leukemia
NCI-H23 lung = test system: NCI-H23 lung
RXF-631 renal = test system: RXF-631 renal
CAKI-1 renal = test system: CAKI-1 renal
SNB-78 CNS = test system: SNB-78 CNS
SF-295 CNS = test system: SF-295 CNS
SK-MEL-28 melanoma = test system: SK-MEL-28 melanoma
HS 578T breast = test system: HS 578T breast
IGROV1 ovarian = test system: IGROV1 ovarian
NCI-H522 lung = test system: NCI-H522 lung
SNB-75 CNS = test system: SNB-75 CNS
SNB-19 CNS = test system: SNB-19 CNS
SK-OV-3 ovarian = test system: SK-OV-3 ovarian
DMS 273 small cell lung = test system: DMS 273 small cell lung
ACHN renal = test system: ACHN renal
NCI-H460 lung = test system: NCI-H460 lung
UACC-257 melanoma = test system: UACC-257 melanoma
OVCAR-8 ovarian = test system: OVCAR-8 ovarian
OVCAR-4 ovarian = test system: OVCAR-4 ovarian
LXFL 529 NSCLC = test system: LXFL 529 NSCLC
HCT-116 colon = test system: HCT-116 colon
MOLT-4 leukemia = test system: MOLT-4 leukemia
786-0 renal = test system: 786-0 renal
HT29 colon = test system: HT29 colon
HL-60(TB) leukemia = test system: HL-60(TB) leukemia
HOP-92 NSCLC = test system: HOP-92 NSCLC
HCT-15 colon = test system: HCT-15 colon
UACC-62 melanoma = test system: UACC-62 melanoma
MDA-MB-435 = test system: MDA-MB-435
DMS 114 small cell lung = test system: DMS 114 small cell lung
OVCAR-3 ovarian = test system: OVCAR-3 ovarian
U251 CNS = test system: U251 CNS
SK-MEL-5 melanoma = test system: SK-MEL-5 melanoma
MDA-MB-231 breast = test system: MDA-MB-231 breast
SN12C renal = test system: SN12C renal
HOP-62 NSCLC = test system: HOP-62 NSCLC
MALME-3M melanoma = test system: MALME-3M melanoma
CCRF-CEM leukemia = test system: CCRF-CEM leukemia
SK-MEL-2 melanoma = test system: SK-MEL-2 melanoma
SF-539 CNS = test system: SF-539 CNS
XF 498 CNS = test system: XF 498 CNS
A549 NSCLC = test system: A549 NSCLC
M19-MEL melanoma = test system: M19-MEL melanoma

With O=C1CCC(C(=O)O)C2=C1CCCC2 (centres undefined) the TGI (TK-10 renal) was over 100 µM, the TGI (MCF7 breast) was over 100 µM and the TGI (LOX IMVI melanoma) was over 100 µM. For the same molecule, the TGI (HCC-2998 colon) was over 100 µM, the TGI (COLO 205 colon) was over 100 µM and the TGI (M14 melanoma) was over 100 µM. The TGI (OVCAR-5 ovarian) was over 100 µM, the TGI (PC-3 prostate) was over 100 µM and the TGI (RPMI-8226 leukemia) was over 100 µM. The TGI (SR leukemia) was over 100 µM, the TGI (EKVX NSCLC) was over 100 µM and the TGI (A498 renal) was over 100 µM. The TGI (BT-549 breast) was over 100 µM, the TGI (SF-268 CNS) was over 100 µM and the TGI (RXF 393 renal) was over 100 µM. The TGI (NCI/ADR-RES ovarian) was over 100 µM, the TGI (NCI-H226 lung) was over 21.5 µM and the TGI (UO-31 renal) was over 100 µM. It also gave a TGI (SW-620 colon) of over 100 µM, a TGI (DLD-1 colon) of over 100 µM and a TGI (KM20L2 colon) of over 100 µM. For the same molecule, the TGI (DU-145 prostate) was over 100 µM, the TGI (HOP-18 NSCLC) was over 100 µM and the TGI (MDA-N) was over 100 µM. For the same molecule, the TGI (T-47D breast) was over 100 µM, the TGI (KM12 colon) was over 100 µM and the TGI (K-562 leukemia) was over 100 µM. For the same molecule, the TGI (NCI-H23 lung) was over 100 µM, the TGI (RXF-631 renal) was over 100 µM and the TGI (CAKI-1 renal) was over 100 µM. It also gave a TGI (SNB-78 CNS) of over 100 µM, a TGI (SF-295 CNS) of over 100 µM and a TGI (SK-MEL-28 melanoma) of over 100 µM. The TGI (HS 578T breast) was over 100 µM, the TGI (IGROV1 ovarian) was over 100 µM and the TGI (NCI-H522 lung) was over 100 µM. For the same molecule, the TGI (SNB-75 CNS) was over 100 µM, the TGI (SNB-19 CNS) was over 100 µM and the TGI (SK-OV-3 ovarian) was over 100 µM. The TGI (DMS 273 small cell lung) was over 100 µM, the TGI (ACHN renal) was over 100 µM and the TGI (NCI-H460 lung) was over 100 µM. The TGI (UACC-257 melanoma) was over 100 µM, the TGI (OVCAR-8 ovarian) was over 100 µM and the TGI (OVCAR-4 ovarian) was over 100 µM. It also gave a TGI (LXFL 529 NSCLC) of over 100 µM, a TGI (HCT-116 colon) of over 100 µM and a TGI (MOLT-4 leukemia) of over 100 µM. For the same molecule, the TGI (786-0 renal) was over 100 µM, the TGI (HT29 colon) was over 100 µM and the TGI (HL-60(TB) leukemia) was over 100 µM. The TGI (HOP-92 NSCLC) was over 100 µM, the TGI (HCT-15 colon) was over 100 µM and the TGI (UACC-62 melanoma) was over 100 µM. It also gave a TGI (MDA-MB-435) of over 100 µM, a TGI (DMS 114 small cell lung) of over 100 µM and a TGI (OVCAR-3 ovarian) of over 100 µM. It also gave a TGI (U251 CNS) of over 29.8 µM, a TGI (SK-MEL-5 melanoma) of over 100 µM and a TGI (MDA-MB-231 breast) of over 100 µM. For the same molecule, the TGI (SN12C renal) was over 100 µM, the TGI (HOP-62 NSCLC) was over 100 µM and the TGI (MALME-3M melanoma) was over 100 µM. For the same molecule, the TGI (CCRF-CEM leukemia) was over 100 µM, the TGI (SK-MEL-2 melanoma) was over 100 µM and the TGI (SF-539 CNS) was over 100 µM. It also gave a TGI (XF 498 CNS) of over 100 µM, a TGI (A549 NSCLC) of over 100 µM and a TGI (M19-MEL melanoma) of over 100 µM.
